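Interpolation was linear, between the two tested concentrations surrounding the appropriate level; five concentrations were tested over 48 hours in 96-well plates. TGI: concentration producing complete growth inhibition.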 Some results are limits rather than exact numbers.

The values below come from PubChem BioAssay (NCI).

Some test systems named below: KM12 colon; SNB-75 CNS; PC-3 prostate; SK-OV-3 ovarian; M14 melanoma; NCI-H23 lung; MALME-3M melanoma; RPMI-8226 leukemia; HCT-116 colon; NCI-H460 lung; DU-145 prostate.
What all share (assay): NCI anticancer screen, dose series, 48 h

Consider `CC1NC(/C(=C/c2ccccc2O)NC(=O)c2ccccc2)OC1=O` (stereo not drawn), for which the TGI in the experiment with KM12 colon, in the experiment on SNB-75 CNS, in the experiment with PC-3 prostate, with SK-OV-3 ovarian, with M14 melanoma and with NCI-H23 lung was greater than 50 µM each time. The TGI in the experiment with MALME-3M melanoma, with RPMI-8226 leukemia and in the experiment on HCT-116 colon was greater than 50 µM each time.

On to `CCC1(N=[N+]=[N-])C(=O)Nc2cc(C)ccc2C1=O` (stereo not drawn), for which the TGI in the experiment with KM12 colon, in the experiment on SNB-75 CNS, in the experiment on SK-OV-3 ovarian, in the experiment with M14 melanoma, in the experiment on NCI-H460 lung and with NCI-H23 lung was greater than 100 µM in each case. For the same compound, the TGI with MALME-3M melanoma and in the experiment on HCT-116 colon was greater than 100 µM each time.

`O=C(c1ccncc1)n1nc(-c2ccccc2)c(N=Nc2ccc([N+](=O)[O-])cc2)c1-c1ccccc1`: the TGI in the experiment with KM12 colon, in the experiment on SNB-75 CNS, in the experiment with SK-OV-3 ovarian, in the experiment with M14 melanoma, in the experiment on NCI-H23 lung and in the experiment on MALME-3M melanoma was greater than 100 µM throughout. In addition, the TGI in the experiment with RPMI-8226 leukemia and with HCT-116 colon was greater than 100 µM throughout.

On to `C=C[C@@]1(C)CC(=O)[C@]2(O)[C@@]3(C)[C@@H](OC(C)=O)CCC(C)(C)[C@@H]3[C@H](OC(C)=O)[C@H](OC(C)=O)[C@@]2(C)O1`, for which the TGI in the experiment with KM12 colon, with SNB-75 CNS, in the experiment on PC-3 prostate, with SK-OV-3 ovarian, in the experiment with DU-145 prostate and with M14 melanoma was greater than 100 µM throughout. The TGI in the experiment on NCI-H460 lung, with NCI-H23 lung and in the experiment on HCT-116 colon was greater than 100 µM in each case.

On to `OC1CC(O)c2c(Cl)sc(Cl)c21` (stereo not drawn), for which the TGI with KM12 colon is greater than 100 µM; in the experiment with SNB-75 CNS, 49.2 µM; in the experiment with SK-OV-3 ovarian it was 82 µM; in the experiment with DU-145 prostate, greater than 100 µM; with M14 melanoma, greater than 100 µM; with NCI-H460 lung, 65.2 µM. The TGI in the experiment with NCI-H23 lung is 67.3 µM; in the experiment with MALME-3M melanoma, greater than 100 µM; in the experiment with HCT-116 colon, greater than 100 µM.

Regarding `CC(=O)Nc1ccc2c(C)c3c4ccccc4n(C)c3nc2n1`, the TGI in the experiment with KM12 colon is 40.2 µM; in the experiment with SNB-75 CNS it was greater than 100 µM; in the experiment with PC-3 prostate, greater than 100 µM; in the experiment with DU-145 prostate it was 90.4 µM; in the experiment with M14 melanoma, 52.3 µM; in the experiment on NCI-H460 lung, 15.5 µM. The TGI with NCI-H23 lung worked out at 53.4 µM; with HCT-116 colon it was 44.6 µM.

On to `C/C=C(/C)C(=O)O[C@H]1C(C)=C[C@]23C(=O)[C@@H](C=C(COC(C)=O)[C@@H](O)[C@]12O)[C@H]1[C@@H](C[C@H]3C)[C@@]1(C)OC(=O)/C(C)=C\C`, for which the TGI in the experiment with KM12 colon was 4.06 µM; in the experiment on SNB-75 CNS, 4.53 µM; in the experiment with PC-3 prostate, 4.75 µM; in the experiment on SK-OV-3 ovarian, 8.2 µM; with DU-145 prostate, 6.21 µM; in the experiment on M14 melanoma, 5.47 µM. In addition, the TGI with NCI-H460 lung was found to be 4.09 µM; with NCI-H23 lung it was 5.19 µM; in the experiment with MALME-3M melanoma, 3.89 µM; in the experiment on HCT-116 colon, 9.77 µM.

Regarding `O=C1CCCC2=C1CC1=C(CCCC1=O)N2c1cccc2ccccc12`, the TGI in the experiment with KM12 colon, with SNB-75 CNS, with PC-3 prostate, in the experiment on SK-OV-3 ovarian, in the experiment with M14 melanoma and in the experiment with NCI-H460 lung was greater than 100 µM throughout. Besides, the TGI with NCI-H23 lung and with RPMI-8226 leukemia was greater than 100 µM throughout.

As for `CSc1cc(Cl)c(C)cc1S(=O)(=O)NC(=O)NNc1ccc(F)c(Cl)c1`, the TGI in the experiment with KM12 colon, with SNB-75 CNS, in the experiment with PC-3 prostate, in the experiment on SK-OV-3 ovarian, in the experiment with DU-145 prostate and in the experiment with M14 melanoma was greater than 100 µM in each case. The TGI in the experiment with NCI-H460 lung, in the experiment with MALME-3M melanoma and in the experiment on HCT-116 colon was greater than 100 µM each time.

As to `CNC(=O)CCNC(=O)CCC(=O)OC`, the TGI with KM12 colon, in the experiment on PC-3 prostate, in the experiment on SK-OV-3 ovarian, in the experiment with DU-145 prostate, with M14 melanoma and in the experiment on NCI-H460 lung was greater than 100 µM throughout. For the same compound, the TGI in the experiment with NCI-H23 lung and in the experiment on HCT-116 colon was greater than 100 µM throughout.

In the case of `CC1(O)/C(=N/O)CC2CC1C2(C)C` (stereo not drawn), the TGI with KM12 colon, in the experiment on SNB-75 CNS, with DU-145 prostate, in the experiment with M14 melanoma, with NCI-H460 lung and in the experiment with NCI-H23 lung was greater than 100 µM throughout. The TGI in the experiment on MALME-3M melanoma and in the experiment with RPMI-8226 leukemia was greater than 100 µM in each case.

For `COc1ccc2c3ccc4c(c3n(C)c2c1)C(=O)c1ccccc1C4=O`, the TGI with SNB-75 CNS, in the experiment on SK-OV-3 ovarian, with M14 melanoma, in the experiment on NCI-H23 lung, in the experiment with MALME-3M melanoma and in the experiment with RPMI-8226 leukemia was greater than 100 µM in each case. Further, in the experiment on HCT-116 colon, the TGI was greater than 100 µM.

Regarding `CN(C)CCNc1ccc2c(=O)n(CCN(C)C)c(=O)n3c4ccc(N)cc4c(=O)c1c23`, the TGI in the experiment with KM12 colon was 7.52 µM; in the experiment on SNB-75 CNS, 0.442 µM; with PC-3 prostate, 0.477 µM; in the experiment on SK-OV-3 ovarian, 2.7 µM; with DU-145 prostate, 2.08 µM; with M14 melanoma, 0.449 µM. Also, the TGI is 0.56 µM in the experiment on NCI-H460 lung, 0.215 µM in the experiment on NCI-H23 lung, 0.352 µM in the experiment on MALME-3M melanoma and 0.166 µM with HCT-116 colon.

In the case of `O=[N+]([O-])C(=C(N1CCOCC1)N1CCOCC1)/C(Cl)=C(\Cl)[N+](=O)[O-]`, the TGI was 30.9 µM with KM12 colon; 34.5 µM with SNB-75 CNS; 32.6 µM with PC-3 prostate; greater than 100 µM in the experiment on SK-OV-3 ovarian; 18 µM in the experiment on DU-145 prostate; 22.1 µM in the experiment with M14 melanoma. The TGI worked out at 70.7 µM with NCI-H460 lung, 9.29 µM in the experiment on NCI-H23 lung, 3.24 µM with MALME-3M melanoma and 4.28 µM in the experiment with HCT-116 colon.

Take `CC1=NN(C(=O)Cc2ccccc2)C(=O)/C1=C\C=C\c1ccccc1`: the TGI with KM12 colon, in the experiment on SNB-75 CNS, in the experiment on M14 melanoma, in the experiment on NCI-H23 lung, in the experiment with MALME-3M melanoma and in the experiment with RPMI-8226 leukemia was greater than 100 µM in each case. Also, the TGI in the experiment with HCT-116 colon was greater than 100 µM.
